Source: paper PMC6706627, “Mapping Interactions of Microbial Metabolites with Human G-Protein-Coupled Receptors” (Cell Host & Microbe, 2019)
Where a SMILES comes first, the peptide text is derived from it. Bridges are numbered along the chain shown (N, C = ends). [ ]: non-standard residue; d: D form.

Tests used:
[1] = target: T1, brain angiogenesis factor 1 (BAI1) receptor (Homo sapiens, UniProt O14514); test: PathHunter beta-arrestin recruitment assay in a recombinant reporter cell line, dose-response; format: cell-based
T1 construct: gene ADGRB1

EBI2 = target: T2, EBI2 (Homo sapiens, UniProt P32249); test: cell-based; design: species or system recombinant GPCR reporter cell lines; PathHunter beta-arrestin recruitment (beta-galactosidase complementation), chemiluminescence, agonist mode, Eurofins DiscoverX; settings: agonist; read-out: RC50 (the source's name)
T2 construct: gene GPR183

GPR109B [2] = target: T3, GPR109B (Homo sapiens, UniProt P49019); test: PathHunter beta-arrestin recruitment assay, dose-response of the known agonist; format: cell-based
T3 construct: gene HCAR3
Excerpt: PathHunter beta-arrestin recruitment assay, dose-response of the known agonist on GPR109B | This previously unknown GPR109B agonist elicited a similar GPCR response to 3-hydroxyoctanoic acid

MRGPRX2 = target: T4, MRGPRX2 (Homo sapiens, UniProt Q96LB1); test: cell-based; design: species or system recombinant GPCR reporter cell lines; PathHunter beta-arrestin recruitment (beta-galactosidase complementation), chemiluminescence, agonist mode, Eurofins DiscoverX
T4 sequence (Q96LB1 1-330): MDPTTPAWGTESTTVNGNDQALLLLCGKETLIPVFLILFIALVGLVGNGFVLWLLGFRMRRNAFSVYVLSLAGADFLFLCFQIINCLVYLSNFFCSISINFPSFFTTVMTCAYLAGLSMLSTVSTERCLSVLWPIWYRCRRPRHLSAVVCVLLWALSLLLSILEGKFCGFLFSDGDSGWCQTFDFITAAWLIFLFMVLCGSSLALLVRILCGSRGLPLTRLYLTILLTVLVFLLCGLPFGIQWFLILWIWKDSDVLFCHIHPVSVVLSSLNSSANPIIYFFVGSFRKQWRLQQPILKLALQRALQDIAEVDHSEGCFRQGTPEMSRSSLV

[3] = target: T5, neuromedin receptor 1 (NMU1R) (Homo sapiens, UniProt Q9HB89); test: PathHunter beta-arrestin recruitment assay in a recombinant reporter cell line, dose-response; format: cell-based
T5 construct: gene NMUR1
T5 sequence (Q9HB89 1-426): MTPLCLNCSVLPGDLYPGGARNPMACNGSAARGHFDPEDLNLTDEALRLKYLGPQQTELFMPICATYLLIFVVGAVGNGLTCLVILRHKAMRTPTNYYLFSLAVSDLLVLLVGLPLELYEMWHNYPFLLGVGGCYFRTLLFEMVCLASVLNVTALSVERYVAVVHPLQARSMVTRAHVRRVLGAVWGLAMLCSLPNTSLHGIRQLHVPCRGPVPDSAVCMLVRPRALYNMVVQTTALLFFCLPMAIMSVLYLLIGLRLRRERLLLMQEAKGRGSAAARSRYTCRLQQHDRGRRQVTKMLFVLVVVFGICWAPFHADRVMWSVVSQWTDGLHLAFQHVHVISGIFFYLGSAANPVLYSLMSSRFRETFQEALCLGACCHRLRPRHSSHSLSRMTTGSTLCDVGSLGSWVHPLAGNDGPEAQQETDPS

[4] = target: T6, urotensin 2 receptor (UTR2) (Homo sapiens, UniProt Q9UKP6); test: as above; format: cell-based
T6 construct: gene UTS2R
T6 sequence (Q9UKP6 1-389): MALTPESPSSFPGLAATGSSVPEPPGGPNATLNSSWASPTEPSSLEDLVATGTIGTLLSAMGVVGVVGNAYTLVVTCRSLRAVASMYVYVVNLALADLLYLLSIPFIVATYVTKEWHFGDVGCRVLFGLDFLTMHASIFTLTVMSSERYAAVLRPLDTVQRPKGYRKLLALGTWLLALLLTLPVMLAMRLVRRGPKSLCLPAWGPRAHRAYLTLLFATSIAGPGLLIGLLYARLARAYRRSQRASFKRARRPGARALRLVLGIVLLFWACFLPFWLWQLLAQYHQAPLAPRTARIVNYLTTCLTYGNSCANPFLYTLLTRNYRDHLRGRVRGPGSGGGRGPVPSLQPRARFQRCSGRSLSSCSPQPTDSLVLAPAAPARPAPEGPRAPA

HRH4 = HRH4 (Homo sapiens, UniProt Q9H3N8); test: PathHunter beta-arrestin recruitment assay in a recombinant reporter cell line, commercial standard, dose-response; format: cell-based
PTHR2 = target: T7, PTHR2 (Homo sapiens, UniProt P49190); test: cell-based; design: species or system recombinant GPCR reporter cell lines; PathHunter beta-arrestin recruitment (beta-galactosidase complementation), chemiluminescence, agonist mode, Eurofins DiscoverX
T7 construct: gene PTH2R

KISS1R = KISS1R (Homo sapiens, UniProt Q969F8); test: cell-based; design: species or system recombinant GPCR reporter cell lines; PathHunter beta-arrestin recruitment (beta-galactosidase complementation), chemiluminescence, agonist mode, Eurofins DiscoverX
FFAR1 = FFAR1 (Homo sapiens, UniProt O14842); test: cell-based; design: species or system recombinant GPCR reporter cell lines; PathHunter beta-arrestin recruitment (beta-galactosidase complementation), chemiluminescence, agonist mode, Eurofins DiscoverX
OXER1 = OXER1 (Homo sapiens, UniProt Q8TDS5); test: cell-based; design: species or system recombinant GPCR reporter cell lines; PathHunter beta-arrestin recruitment (beta-galactosidase complementation), chemiluminescence, agonist mode, Eurofins DiscoverX
PTGIR = PTGIR (Homo sapiens, UniProt P43119); test: cell-based; design: species or system recombinant GPCR reporter cell lines; PathHunter beta-arrestin recruitment (beta-galactosidase complementation), chemiluminescence, agonist mode, Eurofins DiscoverX
CRTH2 = target: T8, CRTH2 (Homo sapiens, UniProt Q9Y5Y4); test: cell-based; design: species or system recombinant GPCR reporter cell lines; PathHunter beta-arrestin recruitment (beta-galactosidase complementation), chemiluminescence, agonist mode, Eurofins DiscoverX
T8 construct: gene PTGDR2
T8 sequence (Q9Y5Y4 1-395): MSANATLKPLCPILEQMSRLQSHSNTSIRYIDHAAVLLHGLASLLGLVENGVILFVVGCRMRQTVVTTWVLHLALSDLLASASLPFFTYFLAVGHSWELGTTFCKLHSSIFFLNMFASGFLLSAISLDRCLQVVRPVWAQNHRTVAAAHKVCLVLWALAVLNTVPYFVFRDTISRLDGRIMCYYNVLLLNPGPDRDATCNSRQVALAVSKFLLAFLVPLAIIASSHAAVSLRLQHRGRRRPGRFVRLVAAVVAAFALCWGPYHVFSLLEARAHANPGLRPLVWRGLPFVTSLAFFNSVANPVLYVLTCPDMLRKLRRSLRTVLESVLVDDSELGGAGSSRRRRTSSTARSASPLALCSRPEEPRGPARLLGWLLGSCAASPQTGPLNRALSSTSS

GPR119 = target: T9, GPR119 (Homo sapiens, UniProt Q8TDV5); test: cell-based; design: species or system recombinant GPCR reporter cell lines; PathHunter beta-arrestin recruitment (beta-galactosidase complementation), chemiluminescence, agonist mode, Eurofins DiscoverX
T9 sequence (Q8TDV5 1-335): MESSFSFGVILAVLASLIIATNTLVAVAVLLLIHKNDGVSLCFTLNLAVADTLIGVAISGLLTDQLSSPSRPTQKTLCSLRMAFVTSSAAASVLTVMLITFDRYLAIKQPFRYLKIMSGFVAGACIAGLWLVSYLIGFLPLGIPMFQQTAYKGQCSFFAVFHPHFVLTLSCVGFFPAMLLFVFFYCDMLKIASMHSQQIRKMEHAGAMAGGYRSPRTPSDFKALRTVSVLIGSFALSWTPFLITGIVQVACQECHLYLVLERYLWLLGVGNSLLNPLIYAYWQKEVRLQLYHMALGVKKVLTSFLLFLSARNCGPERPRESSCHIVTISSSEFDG

GPR109B [5] = target: T3, GPR109B; test: PathHunter beta-arrestin recruitment assay in a recombinant reporter cell line, dose-response; format: cell-based

T3 sequence (P49019 whole entry): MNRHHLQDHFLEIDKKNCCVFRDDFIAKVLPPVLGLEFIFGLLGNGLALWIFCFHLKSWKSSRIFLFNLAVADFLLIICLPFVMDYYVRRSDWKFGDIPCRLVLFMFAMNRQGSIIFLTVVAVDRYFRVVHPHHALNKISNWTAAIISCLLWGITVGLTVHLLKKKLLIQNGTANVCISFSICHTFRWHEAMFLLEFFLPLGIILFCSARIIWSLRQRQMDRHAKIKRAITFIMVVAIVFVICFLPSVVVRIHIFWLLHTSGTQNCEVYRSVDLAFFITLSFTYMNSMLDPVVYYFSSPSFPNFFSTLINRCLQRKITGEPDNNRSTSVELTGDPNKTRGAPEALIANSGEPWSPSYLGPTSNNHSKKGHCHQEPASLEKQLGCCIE
Chain of HRH4 (Q9H3N8 whole entry): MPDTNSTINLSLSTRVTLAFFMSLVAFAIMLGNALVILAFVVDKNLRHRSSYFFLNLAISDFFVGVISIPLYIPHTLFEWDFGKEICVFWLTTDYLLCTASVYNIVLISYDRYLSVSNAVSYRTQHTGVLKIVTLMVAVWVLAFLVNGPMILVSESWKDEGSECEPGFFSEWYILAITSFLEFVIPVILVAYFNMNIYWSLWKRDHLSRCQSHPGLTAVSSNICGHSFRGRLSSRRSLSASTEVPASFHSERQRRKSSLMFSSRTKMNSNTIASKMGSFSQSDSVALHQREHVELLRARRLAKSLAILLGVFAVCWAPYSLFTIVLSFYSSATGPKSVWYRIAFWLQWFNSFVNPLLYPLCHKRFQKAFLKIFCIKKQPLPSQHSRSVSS
T1 sequence (O14514 31-1584): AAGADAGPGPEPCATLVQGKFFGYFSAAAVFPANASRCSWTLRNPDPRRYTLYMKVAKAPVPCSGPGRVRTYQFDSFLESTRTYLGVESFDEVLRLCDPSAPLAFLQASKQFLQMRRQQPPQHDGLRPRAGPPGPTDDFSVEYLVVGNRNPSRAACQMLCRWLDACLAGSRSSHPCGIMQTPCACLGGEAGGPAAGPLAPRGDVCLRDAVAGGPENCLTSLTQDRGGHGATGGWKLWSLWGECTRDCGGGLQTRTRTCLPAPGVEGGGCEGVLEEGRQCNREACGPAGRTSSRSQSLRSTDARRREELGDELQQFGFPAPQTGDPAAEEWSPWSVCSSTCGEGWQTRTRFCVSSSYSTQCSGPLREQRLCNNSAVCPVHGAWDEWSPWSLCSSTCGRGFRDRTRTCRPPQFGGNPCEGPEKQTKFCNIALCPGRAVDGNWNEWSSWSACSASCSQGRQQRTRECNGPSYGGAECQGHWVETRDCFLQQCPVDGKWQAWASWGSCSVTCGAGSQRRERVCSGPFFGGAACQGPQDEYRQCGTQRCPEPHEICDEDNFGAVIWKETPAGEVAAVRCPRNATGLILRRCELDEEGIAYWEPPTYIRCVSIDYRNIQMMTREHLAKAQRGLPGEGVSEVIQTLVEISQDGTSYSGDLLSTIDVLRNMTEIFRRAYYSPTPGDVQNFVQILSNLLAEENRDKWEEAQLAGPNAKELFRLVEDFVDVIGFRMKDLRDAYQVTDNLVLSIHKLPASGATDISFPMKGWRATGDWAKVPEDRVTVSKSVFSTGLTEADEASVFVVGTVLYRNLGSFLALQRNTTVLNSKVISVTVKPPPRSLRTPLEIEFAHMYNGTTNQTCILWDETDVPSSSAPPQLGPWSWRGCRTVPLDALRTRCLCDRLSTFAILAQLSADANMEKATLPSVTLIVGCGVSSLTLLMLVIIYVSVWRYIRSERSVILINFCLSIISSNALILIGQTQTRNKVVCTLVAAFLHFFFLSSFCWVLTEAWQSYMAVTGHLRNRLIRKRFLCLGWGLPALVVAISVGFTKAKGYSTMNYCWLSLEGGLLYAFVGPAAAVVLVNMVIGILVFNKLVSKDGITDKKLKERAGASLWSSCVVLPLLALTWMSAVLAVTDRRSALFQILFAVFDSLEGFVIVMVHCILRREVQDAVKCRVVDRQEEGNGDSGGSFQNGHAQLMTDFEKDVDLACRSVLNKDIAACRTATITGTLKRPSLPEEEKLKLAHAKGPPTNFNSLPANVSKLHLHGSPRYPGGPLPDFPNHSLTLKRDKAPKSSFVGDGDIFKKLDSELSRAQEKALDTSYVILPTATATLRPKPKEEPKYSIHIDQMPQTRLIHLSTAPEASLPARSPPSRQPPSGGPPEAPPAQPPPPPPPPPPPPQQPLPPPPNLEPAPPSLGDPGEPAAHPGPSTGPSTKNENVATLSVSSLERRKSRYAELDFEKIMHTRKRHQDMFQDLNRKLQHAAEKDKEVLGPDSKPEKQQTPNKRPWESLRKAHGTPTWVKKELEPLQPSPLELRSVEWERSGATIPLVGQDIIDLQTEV
Chain of FFAR1 (O14842 whole entry): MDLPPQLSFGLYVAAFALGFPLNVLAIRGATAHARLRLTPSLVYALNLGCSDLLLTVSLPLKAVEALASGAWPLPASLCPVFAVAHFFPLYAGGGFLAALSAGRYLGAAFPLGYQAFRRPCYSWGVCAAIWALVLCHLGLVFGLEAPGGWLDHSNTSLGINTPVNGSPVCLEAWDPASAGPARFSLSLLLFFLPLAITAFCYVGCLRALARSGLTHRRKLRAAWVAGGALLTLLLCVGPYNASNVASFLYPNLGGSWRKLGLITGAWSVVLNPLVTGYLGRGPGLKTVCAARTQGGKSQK
T2 sequence (P32249 whole entry): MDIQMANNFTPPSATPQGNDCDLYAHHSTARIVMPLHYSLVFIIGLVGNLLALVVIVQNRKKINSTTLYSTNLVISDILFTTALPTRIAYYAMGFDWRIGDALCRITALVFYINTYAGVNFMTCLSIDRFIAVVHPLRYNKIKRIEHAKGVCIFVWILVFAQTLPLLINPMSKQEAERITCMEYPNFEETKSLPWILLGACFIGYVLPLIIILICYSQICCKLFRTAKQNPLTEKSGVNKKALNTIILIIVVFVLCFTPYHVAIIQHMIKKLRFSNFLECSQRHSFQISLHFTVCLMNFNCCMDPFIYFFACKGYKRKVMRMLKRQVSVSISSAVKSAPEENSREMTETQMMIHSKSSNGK
Chain of KISS1R (Q969F8 whole entry): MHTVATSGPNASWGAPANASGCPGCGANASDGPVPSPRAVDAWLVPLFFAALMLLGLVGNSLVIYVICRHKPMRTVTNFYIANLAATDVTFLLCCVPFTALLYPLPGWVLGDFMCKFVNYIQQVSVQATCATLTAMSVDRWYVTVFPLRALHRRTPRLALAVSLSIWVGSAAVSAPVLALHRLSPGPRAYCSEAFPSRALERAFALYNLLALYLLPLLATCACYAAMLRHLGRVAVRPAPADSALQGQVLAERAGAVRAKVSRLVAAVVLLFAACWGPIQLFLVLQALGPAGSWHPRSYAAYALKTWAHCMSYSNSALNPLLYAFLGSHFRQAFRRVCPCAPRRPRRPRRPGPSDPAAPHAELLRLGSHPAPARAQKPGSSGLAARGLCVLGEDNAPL
Chain of PTGIR (P43119 whole entry): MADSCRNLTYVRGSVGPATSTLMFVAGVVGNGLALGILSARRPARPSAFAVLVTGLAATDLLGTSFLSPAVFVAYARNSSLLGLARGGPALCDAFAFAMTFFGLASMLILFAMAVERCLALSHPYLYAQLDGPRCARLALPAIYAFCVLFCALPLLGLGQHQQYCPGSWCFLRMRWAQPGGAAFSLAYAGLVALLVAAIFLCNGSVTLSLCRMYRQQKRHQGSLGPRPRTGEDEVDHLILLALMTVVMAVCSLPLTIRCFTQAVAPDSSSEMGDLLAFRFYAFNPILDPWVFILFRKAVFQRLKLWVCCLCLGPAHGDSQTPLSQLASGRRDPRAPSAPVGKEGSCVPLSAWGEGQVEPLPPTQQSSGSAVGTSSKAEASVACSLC
T7 sequence (P49190 whole entry): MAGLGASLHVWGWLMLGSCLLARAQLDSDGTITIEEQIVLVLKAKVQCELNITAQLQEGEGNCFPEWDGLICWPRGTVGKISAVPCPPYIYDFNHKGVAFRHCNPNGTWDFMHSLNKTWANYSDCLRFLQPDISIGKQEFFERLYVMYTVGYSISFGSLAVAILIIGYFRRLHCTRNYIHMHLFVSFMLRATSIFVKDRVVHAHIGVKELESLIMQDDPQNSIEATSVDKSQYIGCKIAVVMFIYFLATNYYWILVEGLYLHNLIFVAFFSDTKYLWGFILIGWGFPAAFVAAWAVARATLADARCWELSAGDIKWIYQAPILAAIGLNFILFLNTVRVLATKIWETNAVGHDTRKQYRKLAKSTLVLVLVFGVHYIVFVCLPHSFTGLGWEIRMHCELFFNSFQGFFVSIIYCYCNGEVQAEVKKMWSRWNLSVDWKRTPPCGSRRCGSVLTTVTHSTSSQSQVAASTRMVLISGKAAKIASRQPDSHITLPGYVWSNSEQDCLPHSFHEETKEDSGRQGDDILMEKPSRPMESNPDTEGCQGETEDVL
Chain of OXER1 (Q8TDS5 whole entry): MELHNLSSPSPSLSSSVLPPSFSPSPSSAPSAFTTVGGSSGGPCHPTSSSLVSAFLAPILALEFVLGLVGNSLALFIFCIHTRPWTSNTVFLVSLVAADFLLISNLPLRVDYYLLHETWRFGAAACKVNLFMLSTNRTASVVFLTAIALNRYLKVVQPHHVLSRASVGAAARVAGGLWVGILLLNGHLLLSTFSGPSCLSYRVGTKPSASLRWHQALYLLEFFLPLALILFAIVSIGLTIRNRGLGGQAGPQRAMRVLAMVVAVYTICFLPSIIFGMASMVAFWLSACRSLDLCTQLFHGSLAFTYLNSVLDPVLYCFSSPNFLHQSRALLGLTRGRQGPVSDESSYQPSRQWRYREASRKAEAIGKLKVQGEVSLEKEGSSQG

SMILES: CCCCCCC1CC1CCCCCCCC(=O)O (stereo not drawn) [9,10-methylenehexadecanoic acid, cis-9,10-methylenehexadecanoic acid]
- EC50 [1]: 11000 nM

SMILES: C[C@H](CCCC(C)(C)O)[C@H]1CC[C@H]2[C@@H]3[C@H](O)C=C4C[C@@H](O)CC[C@]4(C)[C@H]3CC[C@]12C [7a,25-Dihydroxycholesterol]
- EC50 (EBI2): 191 nM

SMILES: CCCCCC(O)CC(=O)O (stereo not drawn) [3-hydroxyoctanoic acid]
- EC50 (GPR109B [2]): 304000 nM

SMILES: C[C@@H](O)[C@@H]1NC(=O)[C@@H](CCCCN)NC(=O)[C@H](Cc2c[nH]c3ccccc23)NC(=O)[C@H](Cc2ccccc2)NC(=O)[C@H](Cc2ccccc2)NC(=O)[C@H](CC(N)=O)NC(=O)[C@H](CCCCN)NC(=O)[C@@H](NC(=O)[C@@H]2CCCN2)CSSC[C@@H](C(=O)N[C@@H](CCCCN)C(=O)O)NC(=O)[C@H](CO)NC(=O)[C@H](CO)NC(=O)[C@@H](Cc2ccccc2)NC1=O [Cortistatin 14] (H-PCKNFFW[dK]T[dF]SSCK-OH; disulfide 2-13)
- EC50 (MRGPRX2): 635 nM

SMILES: CCC(C)CCCCCCCCCCC(=O)O (stereo not drawn) [aiC15:0, 12-methyltetradecanoic acid]
- EC50 [3]: 125000 nM
- EC50 [4]: 191000 nM

SMILES: NCCCCCN [cadaverine]
- EC50 (HRH4): 1100 nM

SMILES: CCCCC#CCCCCCCCC(=O)OC [TIP-39]
- EC50 (PTHR2): 0.849 nM

SMILES: CC(C)C[C@H](NC(=O)CNC(=O)[C@H](Cc1ccccc1)NC(=O)[C@H](CO)NC(=O)[C@H](CC(N)=O)NC(=O)[C@H](Cc1c[nH]c2ccccc12)NC(=O)[C@H](CC(N)=O)NC(=O)[C@@H](N)Cc1ccc(O)cc1)C(=O)N[C@@H](CCCNC(=N)N)C(=O)N[C@@H](Cc1ccccc1)C(N)=O [Kisspeptin-10]
- EC50 (KISS1R): 11.7 nM

SMILES: O=C(O)CCc1ccc(NCc2cccc(Oc3ccccc3)c2)cc1 [GW9508]
- EC50 (FFAR1): 288 nM

SMILES: CCCCC/C=C\C/C=C\C/C=C\C=C\C(=O)CCCC(=O)O [5-OxoETE]
- EC50 (OXER1): 693 nM

SMILES: CC#CCC(C)[C@H](O)/C=C/[C@@H]1[C@H]2c3cccc(CCCC(=O)O)c3O[C@H]2C[C@H]1O (mixture of isomers) [Beraprost]
- EC50 (PTGIR): 311 nM

SMILES: CCCCC[C@H](O)/C=C/[C@H]1C(=O)C[C@H](O)[C@@H]1C/C=C\CCCC(=O)O [PGD2]
- EC50 (CRTH2): 19.3 nM

SMILES: CCCCCCCC/C=C\CCCCCCCC(=O)NCCO [Oleoyl Ethanolamide]
- EC50 (GPR119): 1740 nM

SMILES: O=C(O)CCc1ccccc1 [phenylpropanoic acid]
- EC50 (GPR109B [5]): 208000 nM
